Experimental data: ChEMBL document CHEMBL5154866 (J Med Chem, 2022)
pIC50: −log10 of the molar value.

Legend:
[1] = target: High affinity nerve growth factor receptor (Homo sapiens, UniProt P04629); assay: Inhibition of N-terminal hexahistidine tagged TRKA (485 to 795 residues) (unknown origin) expressed in Sf9 cells using Ser/Thr 06 peptide as substrate incubated for 1 hr in presence of 400 uM ATP by FRET based Z'-Lyte assay
[2] = target: High affinity nerve growth factor receptor (Homo sapiens, UniProt P04629, G667C); assay: Inhibition of TRKA G667C mutant (unknown origin) using Ser/Thr 06 peptide as substrate incubated for 1 hr in presence of 400 uM ATP by FRET based Z'-Lyte assay
Chain of High affinity nerve growth factor receptor (Homo sapiens, UniProt P04629, G667C) (P04629 33-796 G667C limits assumed): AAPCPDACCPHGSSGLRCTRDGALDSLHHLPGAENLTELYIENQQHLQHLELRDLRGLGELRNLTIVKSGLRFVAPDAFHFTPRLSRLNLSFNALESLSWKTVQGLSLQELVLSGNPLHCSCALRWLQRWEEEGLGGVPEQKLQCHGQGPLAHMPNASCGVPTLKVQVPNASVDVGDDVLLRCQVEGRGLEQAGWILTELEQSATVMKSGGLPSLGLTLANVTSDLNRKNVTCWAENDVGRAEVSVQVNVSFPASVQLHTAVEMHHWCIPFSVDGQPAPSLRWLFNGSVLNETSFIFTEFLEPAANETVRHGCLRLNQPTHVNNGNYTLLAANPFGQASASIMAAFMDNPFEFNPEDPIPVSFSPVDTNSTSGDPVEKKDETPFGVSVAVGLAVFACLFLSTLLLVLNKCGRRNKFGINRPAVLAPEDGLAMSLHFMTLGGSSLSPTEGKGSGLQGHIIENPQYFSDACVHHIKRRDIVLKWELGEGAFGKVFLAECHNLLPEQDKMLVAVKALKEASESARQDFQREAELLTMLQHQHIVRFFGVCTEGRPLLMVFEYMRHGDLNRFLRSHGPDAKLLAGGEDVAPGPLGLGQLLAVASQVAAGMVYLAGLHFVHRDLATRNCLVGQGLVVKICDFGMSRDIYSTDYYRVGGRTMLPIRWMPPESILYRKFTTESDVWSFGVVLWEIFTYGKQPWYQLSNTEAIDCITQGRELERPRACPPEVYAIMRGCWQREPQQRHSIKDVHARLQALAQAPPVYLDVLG

[3] = target: High affinity nerve growth factor receptor (Homo sapiens, UniProt P04629, G595R); assay: Inhibition of TRKA G595R mutant (unknown origin) by HTRF assay
Chain of High affinity nerve growth factor receptor (Homo sapiens, UniProt P04629, G595R) (P04629 33-796 G595R limits assumed): as the sequence (P04629 33-796 G667C limits assumed) above, with G563R, C635G counted along it

[4] = system: BaF3; assay: Antiproliferative activity against mouse BaF3 cells expressing CD74 fused TRKA assessed as cell growth inhibition incubated for 3 days by CCK8 assay; conditions: BaF3, 72 h
[5] = system: BaF3; assay: Antiproliferative activity against mouse BaF3 cells expressing ETV6 fused TRKC assessed as cell growth inhibition incubated for 3 days by CCK8 assay; conditions: BaF3, 72 h
[6] = system: BaF3; assay: cells; conditions: Mus musculus, BaF3, 72 h
[7] = system: BaF3; assay: cells; conditions: Mus musculus, BaF3, 72 h; remark: listed apart in the source
[8] = target: Epithelial discoidin domain-containing receptor 1 (Homo sapiens, UniProt Q08345); assay: Inhibition of human wild type partial length DDR1(R565 to V876 residue) expressed in bacterial expression system by Kinomescan method
Chain of Epithelial discoidin domain-containing receptor 1 (Q08345 whole entry, the tested form may be a part): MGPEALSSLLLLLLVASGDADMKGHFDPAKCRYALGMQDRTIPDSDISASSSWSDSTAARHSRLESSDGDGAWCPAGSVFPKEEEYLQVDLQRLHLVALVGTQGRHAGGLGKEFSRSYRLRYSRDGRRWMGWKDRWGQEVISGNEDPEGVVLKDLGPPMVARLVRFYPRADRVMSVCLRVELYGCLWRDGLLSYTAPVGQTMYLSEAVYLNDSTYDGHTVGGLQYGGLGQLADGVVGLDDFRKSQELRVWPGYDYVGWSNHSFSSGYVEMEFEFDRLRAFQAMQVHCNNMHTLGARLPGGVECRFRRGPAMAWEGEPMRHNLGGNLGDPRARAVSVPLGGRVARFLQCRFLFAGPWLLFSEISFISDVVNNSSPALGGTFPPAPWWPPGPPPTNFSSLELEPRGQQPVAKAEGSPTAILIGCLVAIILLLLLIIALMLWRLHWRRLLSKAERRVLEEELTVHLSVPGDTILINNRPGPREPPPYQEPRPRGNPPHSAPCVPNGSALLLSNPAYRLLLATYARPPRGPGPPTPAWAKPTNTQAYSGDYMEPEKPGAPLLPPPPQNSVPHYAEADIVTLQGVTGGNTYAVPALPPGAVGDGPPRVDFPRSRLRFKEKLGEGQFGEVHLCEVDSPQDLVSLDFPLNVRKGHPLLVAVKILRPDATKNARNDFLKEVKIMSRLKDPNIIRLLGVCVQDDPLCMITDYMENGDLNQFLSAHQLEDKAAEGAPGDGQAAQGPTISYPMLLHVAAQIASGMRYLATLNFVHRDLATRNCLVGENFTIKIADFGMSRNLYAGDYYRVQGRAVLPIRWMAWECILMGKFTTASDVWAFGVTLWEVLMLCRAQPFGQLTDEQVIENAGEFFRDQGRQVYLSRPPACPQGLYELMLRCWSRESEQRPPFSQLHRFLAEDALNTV

[9] = target: T1, Discoidin domain-containing receptor 2 (Homo sapiens, UniProt Q16832); assay: Inhibition of human wild type partial length DDR2 (V555 to E855 residues) expressed in mammalian expression system by Kinomescan method
T1 sequence (Q16832 whole entry): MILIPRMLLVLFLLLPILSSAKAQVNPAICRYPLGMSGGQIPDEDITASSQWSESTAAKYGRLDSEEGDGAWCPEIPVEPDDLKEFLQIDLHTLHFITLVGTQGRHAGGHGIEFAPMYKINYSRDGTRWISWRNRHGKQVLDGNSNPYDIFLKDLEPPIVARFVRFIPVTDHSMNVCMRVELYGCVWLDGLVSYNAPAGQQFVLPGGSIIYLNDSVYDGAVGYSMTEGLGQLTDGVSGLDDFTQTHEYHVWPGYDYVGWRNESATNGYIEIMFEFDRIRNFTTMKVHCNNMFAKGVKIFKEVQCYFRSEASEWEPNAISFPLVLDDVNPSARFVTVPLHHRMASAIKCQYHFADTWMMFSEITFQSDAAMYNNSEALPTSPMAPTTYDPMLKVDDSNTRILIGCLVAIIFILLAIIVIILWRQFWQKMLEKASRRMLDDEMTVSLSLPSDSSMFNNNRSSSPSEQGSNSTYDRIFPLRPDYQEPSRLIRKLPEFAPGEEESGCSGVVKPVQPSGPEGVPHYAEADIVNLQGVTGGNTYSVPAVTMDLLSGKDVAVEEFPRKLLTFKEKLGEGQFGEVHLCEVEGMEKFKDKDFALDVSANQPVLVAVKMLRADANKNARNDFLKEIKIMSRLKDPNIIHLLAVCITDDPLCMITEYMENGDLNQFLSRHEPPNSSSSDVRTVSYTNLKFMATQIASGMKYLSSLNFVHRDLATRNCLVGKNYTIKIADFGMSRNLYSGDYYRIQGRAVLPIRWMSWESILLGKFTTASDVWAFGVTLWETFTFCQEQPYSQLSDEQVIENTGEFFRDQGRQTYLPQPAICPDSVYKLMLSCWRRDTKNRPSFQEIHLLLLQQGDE

[10] = target: Ephrin type-A receptor 7 (Homo sapiens, UniProt Q15375); assay: Inhibition of human wild type partial length EphA7 (Y608 to S912 residues) expressed in bacterial expression system by Kinomescan method
Chain of Ephrin type-A receptor 7 (Q15375 whole entry, the tested form may be a part): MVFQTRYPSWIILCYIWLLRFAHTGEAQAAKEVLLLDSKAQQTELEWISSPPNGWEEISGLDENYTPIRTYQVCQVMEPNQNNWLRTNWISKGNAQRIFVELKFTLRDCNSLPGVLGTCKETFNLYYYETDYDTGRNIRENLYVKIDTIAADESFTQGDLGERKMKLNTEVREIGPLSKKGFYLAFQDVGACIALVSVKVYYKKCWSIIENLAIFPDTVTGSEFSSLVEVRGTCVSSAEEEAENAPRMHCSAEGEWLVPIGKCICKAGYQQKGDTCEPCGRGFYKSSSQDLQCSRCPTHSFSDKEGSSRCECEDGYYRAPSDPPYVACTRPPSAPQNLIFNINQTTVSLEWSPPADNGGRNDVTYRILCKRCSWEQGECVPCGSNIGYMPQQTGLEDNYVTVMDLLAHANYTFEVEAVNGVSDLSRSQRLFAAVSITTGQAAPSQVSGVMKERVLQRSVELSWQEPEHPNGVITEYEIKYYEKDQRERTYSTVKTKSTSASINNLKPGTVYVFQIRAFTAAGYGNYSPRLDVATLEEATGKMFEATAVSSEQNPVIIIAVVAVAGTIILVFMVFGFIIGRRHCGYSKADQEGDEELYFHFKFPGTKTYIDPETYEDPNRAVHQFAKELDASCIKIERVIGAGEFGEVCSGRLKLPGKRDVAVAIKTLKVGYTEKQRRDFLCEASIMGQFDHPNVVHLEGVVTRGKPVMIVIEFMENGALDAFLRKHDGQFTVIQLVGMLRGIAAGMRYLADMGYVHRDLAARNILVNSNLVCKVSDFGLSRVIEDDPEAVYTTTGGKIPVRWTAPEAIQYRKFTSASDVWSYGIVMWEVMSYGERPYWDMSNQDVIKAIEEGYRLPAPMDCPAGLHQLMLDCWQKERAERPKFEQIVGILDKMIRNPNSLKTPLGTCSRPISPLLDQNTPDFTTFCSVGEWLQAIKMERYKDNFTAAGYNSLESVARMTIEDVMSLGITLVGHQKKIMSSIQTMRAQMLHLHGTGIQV

[11] = target: Angiopoietin-1 receptor (Homo sapiens, UniProt Q02763); assay: Inhibition human wild type partial length Tie2 (N804 to T1112 residues) expressed in bacterial expression system by Kinomescan method
Chain of Angiopoietin-1 receptor (Q02763 whole entry, the tested form may be a part): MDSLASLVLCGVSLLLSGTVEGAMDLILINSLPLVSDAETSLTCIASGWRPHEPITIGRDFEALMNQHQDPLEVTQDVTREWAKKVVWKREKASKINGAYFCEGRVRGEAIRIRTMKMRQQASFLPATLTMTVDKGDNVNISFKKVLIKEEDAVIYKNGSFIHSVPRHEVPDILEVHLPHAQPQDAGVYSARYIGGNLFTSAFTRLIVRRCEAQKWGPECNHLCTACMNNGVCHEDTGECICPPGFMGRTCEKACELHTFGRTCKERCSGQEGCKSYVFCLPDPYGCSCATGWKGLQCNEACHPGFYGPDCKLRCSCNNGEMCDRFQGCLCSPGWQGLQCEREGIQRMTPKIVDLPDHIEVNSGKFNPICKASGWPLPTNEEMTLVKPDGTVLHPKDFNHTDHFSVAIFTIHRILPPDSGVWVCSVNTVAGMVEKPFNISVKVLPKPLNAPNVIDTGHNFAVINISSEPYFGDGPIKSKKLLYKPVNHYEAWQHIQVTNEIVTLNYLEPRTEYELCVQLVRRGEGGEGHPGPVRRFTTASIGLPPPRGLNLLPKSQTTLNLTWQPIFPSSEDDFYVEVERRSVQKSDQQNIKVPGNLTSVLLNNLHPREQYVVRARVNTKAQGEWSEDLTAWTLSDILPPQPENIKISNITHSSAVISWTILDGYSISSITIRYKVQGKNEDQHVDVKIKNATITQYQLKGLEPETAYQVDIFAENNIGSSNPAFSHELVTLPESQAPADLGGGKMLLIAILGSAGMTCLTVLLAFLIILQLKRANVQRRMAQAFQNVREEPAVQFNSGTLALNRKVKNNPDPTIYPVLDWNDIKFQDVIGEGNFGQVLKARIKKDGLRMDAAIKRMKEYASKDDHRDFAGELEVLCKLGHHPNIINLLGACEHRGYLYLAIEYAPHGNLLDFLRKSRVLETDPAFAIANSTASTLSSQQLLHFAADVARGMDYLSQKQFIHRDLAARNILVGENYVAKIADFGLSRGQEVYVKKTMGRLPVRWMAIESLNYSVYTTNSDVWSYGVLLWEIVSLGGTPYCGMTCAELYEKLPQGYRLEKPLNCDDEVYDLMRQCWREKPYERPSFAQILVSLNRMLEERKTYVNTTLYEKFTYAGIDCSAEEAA

[12] = AUC (0 to t) in Sprague-Dawley rat at 10 mg/kg, po measured upto 24 hrs by LC-MS/MS analysis; assay type: ADME, organism-based; set-up: time < 24 hrs, dose 10 mg/kg, route po; conditions: in vivo
[13] = Cmax in Sprague-Dawley rat at 10 mg/kg, po measured upto 24 hrs by LC-MS/MS analysis; assay type: ADME, organism-based; set-up: dose 10 mg/kg, time < 24 hrs, route po; conditions: in vivo
[14] = system: BaF3; assay: Antiproliferative activity against mouse BaF3 cells expressing ETV6 fused TRKC G623E mutant incubated for 3 days by CCK8 assay; conditions: BaF3, 72 h
[15] = system: BaF3; assay: Antiproliferative activity against mouse BaF3 cells expressing CD74 fused TRKA G667A mutant incubated for 3 days by CCK8 assay; conditions: BaF3, 72 h
[16] = system: BaF3; assay: Antiproliferative activity against mouse BaF3 cells expressing CD74 fused TRKA G667S mutant incubated for 3 days by CCK8 assay; conditions: BaF3, 72 h
[17] = system: BaF3; assay: Antiproliferative activity against mouse BaF3 cells expressing ETV6 fused TRKC G696C mutant incubated for 3 days by CCK8 assay; conditions: BaF3, 72 h
[18] = system: BaF3; assay: Antiproliferative activity against mouse BaF3 cells expressing ETV6 fused TRKC G696A mutant incubated for 3 days by CCK8 assay; conditions: BaF3, 72 h
[19] = system: BaF3; assay: Antiproliferative activity against mouse BaF3 cells expressing ETV6 fused TRKC G623R mutant incubated for 3 days by CCK8 assay; conditions: BaF3, 72 h
[20] = system: BaF3; assay: Antiproliferative activity against mouse BaF3 cells expressing ETV6 fused TRKC V573M mutant incubated for 3 days by CCK8 assay; conditions: BaF3, 72 h
[21] = system: BaF3; assay: Antiproliferative activity against mouse BaF3 cells expressing ETV6 fused TRKC G696S mutant incubated for 3 days by CCK8 assay; conditions: BaF3, 72 h
[22] = Antiproliferative activity against human KM12-Luc cells assessed as inhibition of cell growth incubated for 3 days by CCK8 assay; assay type: functional, cell-based; conditions: 72 h
[23] = system: BaF3; assay: Antiproliferative activity against mouse BaF3 cells assessed as inhibition of cell growth incubated for 3 days by CCK8 assay; assay type: functional, cell-based; conditions: BaF3, 72 h

Chain of High affinity nerve growth factor receptor (Homo sapiens, UniProt P04629) (P04629 whole entry, the tested form may be a part): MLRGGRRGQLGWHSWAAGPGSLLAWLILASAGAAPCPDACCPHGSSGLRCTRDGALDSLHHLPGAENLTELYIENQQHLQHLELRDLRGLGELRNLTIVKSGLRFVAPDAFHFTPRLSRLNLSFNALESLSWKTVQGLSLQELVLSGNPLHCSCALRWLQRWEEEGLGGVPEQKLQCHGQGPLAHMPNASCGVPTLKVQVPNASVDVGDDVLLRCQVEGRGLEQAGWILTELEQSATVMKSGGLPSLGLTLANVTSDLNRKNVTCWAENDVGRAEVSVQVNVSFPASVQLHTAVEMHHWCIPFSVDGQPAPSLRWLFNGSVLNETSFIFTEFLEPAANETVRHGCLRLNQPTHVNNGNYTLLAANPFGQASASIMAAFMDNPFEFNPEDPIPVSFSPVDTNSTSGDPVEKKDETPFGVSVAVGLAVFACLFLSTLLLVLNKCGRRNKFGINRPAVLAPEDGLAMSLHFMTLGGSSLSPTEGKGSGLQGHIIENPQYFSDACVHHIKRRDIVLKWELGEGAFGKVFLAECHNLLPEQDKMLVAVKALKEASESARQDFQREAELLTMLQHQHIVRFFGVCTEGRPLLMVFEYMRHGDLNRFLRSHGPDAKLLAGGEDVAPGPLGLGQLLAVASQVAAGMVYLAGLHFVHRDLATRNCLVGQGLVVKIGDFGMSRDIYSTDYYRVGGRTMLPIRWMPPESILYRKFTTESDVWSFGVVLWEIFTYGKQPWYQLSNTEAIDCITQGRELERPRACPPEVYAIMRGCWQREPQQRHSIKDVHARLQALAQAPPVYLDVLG

pIC50 [4]	pIC50 [5]	pIC50 [6]	pIC50 [7]	pIC50 [14]	pIC50 [15]	pIC50 [16]	pIC50 [17]	pIC50 [18]	pIC50 [19]	pIC50 [20]	Compound	other results
6.85	6.74	7.46	6.28	–	–	–	–	–	–	–	Cc1c2cc(cc1C(=O)Nc1cc(CN3CCN(C)CC3)cc(C(F)(F)F)c1)OCCCCC(=O)NCCN(C)c1ccc3ncc(n3n1)C#C2	pIC50 [1]: 8.11; pIC50 [2]: 8.57; pIC50 [3]: 7.09
–	–	–	–	–	–	–	–	–	–	–	Cc1cn(-c2cc(NC(=O)c3cc4cc(c3C)C#Cc3cnc5ccc(nn35)N(C)CCNC(=O)CCCCO4)cc(C(F)(F)F)c2)cn1	pIC50 [8]: 7.58; pIC50 [9]: 6.50; pIC50 [10]: 6.79; pIC50 [11]: 6.66; AUC(0-t) at 24 h [12]: 51.6 ng·h/mL; Cmax [13]: 19.1 ng/mL
8.05	8.15	6.96	5.81	7.02	8.00	7.42	6.48	7.83	< 6.00	6.76	O=C(Nc1cnn2ccc(N3CCC[C@@H]3c3cc(F)ccc3F)nc12)N1CC[C@H](O)C1 [LAROTRECTINIB]	–
–	–	7.39	–	8.24	8.49	7.98	7.55	8.62	8.07	7.97	C[C@@H]1CCc2ncc(F)cc2[C@H]2CCCN2c2ccn3ncc(c3n2)C(=O)N1 [SELITRECTINIB]	pIC50 [21]: 8.09; pIC50 [22]: 8.64; pIC50 [23]: < 5.00
